# Test results from patent US20170112940A1, “Modified Collagen Hybridizing Peptides And Uses Thereof” (University of Utah Research Foundation, priority 2015, published 2017).
# Columns and labels:
# [1] = Melting temperature (melting curve) of the peptides in 1× PBS; type: physicochemical; conditions: FIG. 1
# Method: The sample concentration tested is 200 uM. 7 is Ac-GPO-GPO-GPO-GPO-GPO-GPO-GPO (This is positive control). 7-1azGly is Ac-GPO-GPO-GPO-azGlyPO-GPO-GPO-GPO. 7-2azGly is Ac-GPO-GPO-azGlyPO-GPO-azGlyPO-GPO-GPO. Melting Temperature of 7 is 54° C. Melting Temperature of 7-1azGly is 65° C. Melting Temperature of 7-2azGly is 77° C.
# [2] = system: Denatured Collagen; assay: Fluorescent staining of SDS-PAGE, denatured collagen lanes; type: binding; conditions: SDS-PAGE stained with 35 μM peptide, 5 ug and 10 ug denatured collagen (lanes 3 and 4), FIG. 4
# Method: (§1) FIGS. 4A and 4B show A) Fluorescent image of SDS-PAGE stained with 35 μM of CFG3(GPO)3AzGPO(GPO)3; B) SDS-PAGE stained with Commassie Blue. Lane 1: MW marker, Lane 2: 50 ug BSA, Lane 3: 5 ug Denatured Collagen (col), Lane 4: 10 ug Denatured Collagen (col). Commasie blue (4B) stains collagen (Lanes 3 and 4) as well as BSA (lane 2).
# [3] = biological target: BSA (Bos taurus, UniProt P02769); assay: Fluorescent staining of SDS-PAGE, BSA lane; type: binding; conditions: SDS-PAGE stained with 35 μM peptide, 50 ug BSA (lane 2), FIG. 4
# Method: as §1
# [4] = system: gelatin; assay: Gelatin binding: peptide remaining on crosslinked gelatin film after binding and washing; conditions: FIG. 3
# Method: 10: 10 μM added to crosslinked gelatin gel. […] 7 is CF-GGG-GPO-GPO-GPO-GPO-GPO-GPO-GPO (positive control). […] 7-2azGly is CF-GGG-GPO-GPO-azGlyPO-GPO-azGlyPO-GPO-GPO. Random9 is Scramble sequence of CF-GGG-(GPO)9 The sequence is CF-GGG-PGO-GPG-POP-OGO-GOP-PGO-OPG-GOO-PPG. (negative control).
# [5] = listed as CFG3(GPO)3AzGPO(GPO)3
# BSA, sequence (P02769 25-607): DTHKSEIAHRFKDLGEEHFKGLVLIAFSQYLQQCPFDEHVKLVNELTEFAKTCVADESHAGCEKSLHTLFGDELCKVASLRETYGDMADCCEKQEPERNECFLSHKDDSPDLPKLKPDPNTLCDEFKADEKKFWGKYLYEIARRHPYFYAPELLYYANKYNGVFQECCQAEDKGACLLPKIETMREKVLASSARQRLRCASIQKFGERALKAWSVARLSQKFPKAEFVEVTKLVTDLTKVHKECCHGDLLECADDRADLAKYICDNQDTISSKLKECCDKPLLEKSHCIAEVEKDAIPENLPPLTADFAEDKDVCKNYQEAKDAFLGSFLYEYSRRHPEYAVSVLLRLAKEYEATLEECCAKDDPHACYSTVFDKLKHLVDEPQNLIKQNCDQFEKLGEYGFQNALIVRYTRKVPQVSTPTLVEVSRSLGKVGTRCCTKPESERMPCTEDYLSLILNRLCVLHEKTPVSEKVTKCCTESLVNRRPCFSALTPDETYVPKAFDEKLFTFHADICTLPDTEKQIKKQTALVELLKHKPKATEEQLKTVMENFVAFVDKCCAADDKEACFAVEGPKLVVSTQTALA
Substance,triple helical structure indicated by sigmoidal shape of the melting curve [1],binding affinity to gelatin (comparison in words) [4],further results
Ac-GPO-GPO-GPO-azGlyPO-GPO-GPO-GPO [7-1azGly],has triple helical structure,–,–
Ac-GPO-GPO-azGlyPO-GPO-azGlyPO-GPO-GPO [7-2azGly],has triple helical structure,–,–
CF-GGG-GPO-GPO-GPO-azGlyPO-GPO-GPO-GPO [7-1azGly],–,much higher than GPO7,"staining of / binding to denatured collagen ([2]; listed as Aza-CHP): binds to denatured collagen; staining of / binding to denatured collagen [2, 5]: stains only collagen; staining of / binding to denatured BSA ([3]; listed as Aza-CHP): does not bind to denatured BSA; staining of / binding to denatured BSA [3, 5]: almost no signal from lane 2"
CF-GGG-GPO-GPO-azGlyPO-GPO-azGlyPO-GPO-GPO [7-2azGly],–,further increases the binding affinity to gelatin,–
